Source: ChEMBL document CHEMBL3351447, “Design, synthesis and anticancer evaluation of tetrahydro-β-carboline-hydantoin hybrids” (Bioorg Med Chem Lett, 2014)
The source made the active and inactive calls. No cut-off for these calls is given here.

What was measured:
[1] = Cytotoxicity against human ME180 cells after 72 hrs by MTT assay; format: functional, cell-based; conditions: ME-180, 72 h
HeLa = assay: Cytotoxicity against human HeLa cells after 72 hrs by MTT assay; format: functional, cell-based
A549 = assay: Cytotoxicity against human A549 cells after 72 hrs by MTT assay; format: functional, cell-based; conditions: A549, 72 h
MCF7 = assay: Cytotoxicity against human MCF7 cells after 72 hrs by MTT assay; format: functional, cell-based; conditions: MCF7, 72 h
[2] = Cytotoxicity against human PC3 cells after 72 hrs by MTT assay; format: functional, cell-based; conditions: PC-3, 72 h
[3] = Selectivity index, ratio of IC50 for human RWPE cells to IC50 for human PC3 cells; format: functional
PC-3 [4] = assay: Induction of cell cycle arrest in human PC3 cells assessed as accumulation at G0/G1 phase at 6 uM after 48 hrs by propidium iodide staining based flow cytometry (reference value: 55%); format: functional
PC-3 [5] = assay: Induction of cell cycle arrest in human PC3 cells assessed as accumulation at S phase at 6 uM after 48 hrs by propidium iodide staining based flow cytometry (reference value: 15.8%); format: functional
PC-3 [6] = assay: Induction of apoptosis in human PC3 cells assessed as early apoptotic cells at 1 uM after 48 hrs by orange/ethidium bromide staining based fluorescence microscopy; format: functional
PC-3 [7] = assay: Induction of cell cycle arrest in human PC3 cells assessed as accumulation at G2/M phase at 3 and 6 uM after 48 hrs by propidium iodide staining based flow cytometry; format: functional
PC-3 [8] = assay: Induction of apoptosis in human PC3 cells assessed as induction of cell shrinkage at 3 and 6 uM after 48 hrs by orange/ethidium bromide staining based fluorescence microscopy; format: functional
PC-3 [9] = assay: Induction of cell cycle arrest in human PC3 cells assessed as accumulation at G2/M phase at 3 uM after 48 hrs by propidium iodide staining based flow cytometry (reference value: 20.9%); format: functional
PC-3 [10] = assay: Induction of cell cycle arrest in human PC3 cells assessed as accumulation at S phase at 3 uM after 48 hrs by propidium iodide staining based flow cytometry (reference value: 15.8%); format: functional
PC-3 [11] = assay: Induction of apoptosis in human PC3 cells assessed as early apoptotic cells at 6 uM after 48 hrs by orange/ethidium bromide staining based fluorescence microscopy; format: functional
PC-3 [12] = assay: Induction of cell cycle arrest in human PC3 cells assessed as accumulation at G0/G1 phase at 3 uM after 48 hrs by propidium iodide staining based flow cytometry (reference value: 55%); format: functional
PC-3 [13] = assay: Induction of apoptosis in human PC3 cells assessed as early apoptotic cells at 3 uM after 48 hrs by orange/ethidium bromide staining based fluorescence microscopy; format: functional
PC-3 [14] = assay: Induction of apoptosis in human PC3 cells assessed as induction of chromatin condensation with destructive fragmentation of the nucleus at 3 and 6 uM after 48 hrs by orange/ethidium bromide staining based fluorescence microscopy; format: functional, cell-based
PC-3 [15] = assay: Induction of cell cycle arrest in human PC3 cells assessed as accumulation at G2/M phase at 6 uM after 48 hrs by propidium iodide staining based flow cytometry (reference value: 20.9%); format: functional
PC-3 [16] = assay: Induction of apoptosis in human PC3 cells assessed as induction of apoptotic body formation at 3 and 6 uM after 48 hrs by orange/ethidium bromide staining based fluorescence microscopy; format: functional, cell-based
PC-3 [17] = assay: Induction of apoptosis in human PC3 cells assessed as induction of membrane blebbing at 3 and 6 uM after 48 hrs by orange/ethidium bromide staining based fluorescence microscopy; format: functional, cell-based

Structure (SMILES)	IC50 [1]	IC50 (HeLa)	IC50 (A549)	IC50 (MCF7)	IC50 [2]	also measured
COc1cc([C@@H]2c3[nH]c4ccccc4c3C[C@@H]3C(=O)N(c4ccc(Cl)cc4)C(=O)N23)ccc1O	> 100 µM	30.6 µM	> 100 µM	19.7 µM	13.4 µM	–
COc1cc([C@@H]2c3[nH]c4ccccc4c3C[C@H]3C(=O)N(c4ccc(Cl)cc4)C(=O)N23)ccc1O	> 100 µM	30.3 µM	> 100 µM	42.2 µM	13.4 µM	–
COc1cc([C@@H]2c3[nH]c4ccccc4c3C[C@@H]3C(=O)N(Cc4ccc(Br)cc4)C(=O)N23)ccc1O	> 100 µM	84.3 µM	> 100 µM	19.9 µM	12 µM	–
COc1cc([C@@H]2c3[nH]c4ccccc4c3C[C@H]3C(=O)N(c4cccc(C(F)(F)F)c4)C(=O)N23)ccc1O	27.4 µM	11.4 µM	> 100 µM	48 µM	9.6 µM	Ratio IC50 [3]: 1.6
COc1cccc2c1C(=O)c1c(O)c3c(c(O)c1C2=O)C[C@@](O)(C(=O)CO)C[C@@H]3O[C@H]1C[C@H](N)[C@H](O)[C@H](C)O1 [DOXORUBICIN]	0.39 µM	–	–	–	–	–
O=C1[C@H]2Cc3c([nH]c4ccccc34)[C@@H](c3cccc(O)c3)N2C(=O)N1Cc1ccc(Br)cc1	17.5 µM	11.2 µM	35.4 µM	27.9 µM	9.13 µM	Ratio IC50 [3]: 1.7
COc1cc([C@@H]2c3[nH]c4ccccc4c3C[C@@H]3C(=O)N(c4cccc(C(F)(F)F)c4)C(=O)N23)ccc1O	30.7 µM	15.6 µM	43.9 µM	35.9 µM	11.7 µM	–
O=C1[C@H]2Cc3c([nH]c4ccccc34)[C@@H](c3cccc(O)c3)N2C(=O)N1CCCl	48 µM	30.3 µM	> 100 µM	> 100 µM	22.3 µM	–
O=C1[C@@H]2Cc3c([nH]c4ccccc34)[C@@H](c3cccc(O)c3)N2C(=O)N1c1ccc(Cl)cc1	24.6 µM	6.5 µM	16 µM	26 µM	6.08 µM	Activity (PC-3 [4]): 45.5%; Activity (PC-3 [5]): 11.8%; Activity (PC-3 [6]): 8%; fold change (FC) (PC-3 [7]): 1.63; Activity (PC-3 [8]): Active; Activity (PC-3 [9]): 31.5%; Ratio IC50 [3]: 5; Activity (PC-3 [10]): 15.8%; Activity (PC-3 [11]): 42.5%; Activity (PC-3 [12]): 43.9%; Activity (PC-3 [13]): 25%; Activity (PC-3 [14]): Active; Activity (PC-3 [15]): 34.1%; Activity (PC-3 [16]): Active; Activity (PC-3 [17]): Active
COc1cc([C@@H]2c3cc4c(cc3[C@@H](O[C@@H]3O[C@@H]5CO[C@@H](C)O[C@H]5[C@H](O)[C@H]3O)[C@H]3COC(=O)[C@H]23)OCO4)cc(OC)c1O [ETOPOSIDE]	8.9 µM	4.71 µM	50 µM	–	14.4 µM	Ratio IC50 [3]: 2
O=C1[C@@H]2Cc3c([nH]c4ccccc34)[C@@H](c3cccc(O)c3)N2C(=O)N1c1cccc(C(F)(F)F)c1	> 100 µM	31.9 µM	> 100 µM	70.9 µM	37.1 µM	–
O=C1[C@H]2Cc3c([nH]c4ccccc34)[C@@H](c3cccc(O)c3)N2C(=O)N1c1ccc(Cl)cc1	17 µM	12.1 µM	34.8 µM	40.5 µM	10.3 µM	–
COc1cc([C@@H]2c3[nH]c4ccccc4c3C[C@H]3C(=O)N(Cc4ccc(Br)cc4)C(=O)N23)ccc1O	> 100 µM	82.9 µM	77.5 µM	> 100 µM	> 100 µM	–
COc1cc([C@@H]2c3[nH]c4ccccc4c3C[C@@H]3C(=O)N(CCCl)C(=O)N23)ccc1O	> 100 µM	33.1 µM	> 100 µM	> 100 µM	29.1 µM	–
COc1cc([C@@H]2c3[nH]c4ccccc4c3C[C@H]3C(=O)N(CCCl)C(=O)N23)ccc1O	> 100 µM	50 µM	> 100 µM	50.7 µM	35.5 µM	–
O=C1[C@@H]2Cc3c([nH]c4ccccc34)[C@@H](c3cccc(O)c3)N2C(=O)N1CCCl	59.5 µM	60.3 µM	68 µM	48.2 µM	49 µM	–
O=C1[C@@H]2Cc3c([nH]c4ccccc34)[C@@H](c3cccc(O)c3)N2C(=O)N1Cc1ccc(Br)cc1	88.6 µM	24.3 µM	34.8 µM	24.9 µM	8.9 µM	Ratio IC50 [3]: 1.9
O=C1[C@H]2Cc3c([nH]c4ccccc34)[C@@H](c3cccc(O)c3)N2C(=O)N1c1cccc(C(F)(F)F)c1	22.6 µM	13.6 µM	40 µM	42.6 µM	11.2 µM	–
